From patent publication US8962845B2, “Pyrazole compounds” (National Health Research Institutes, priority 2011, dated 2015) come the findings set out here.

Assay [1] relates to male C57BL/6 mice. Description: Tetrad response test (body temperature, tail-flick after CP55,940). The class given is in vivo. The conditions noted are these: CP55,940 1 mg/kg i.p. The procedure:
Body temperature and tail-flick responses were measured by rectal thermometer (Natsume, Japan) and tail-flick analgesia meter RS232 (Columbus, USA), respectively, in male C57BL/6 mice. One hour after oral administration of a test compound dissolved in DMSO/Tween 80/H2O (1/1/8 by volume), 1 mg/kg of CP55,940 in saline containing 0.5% DMSO was injected intraperitoneally. Body temperature was measured at a time point of 30 and 65 min, and tail flick response was measured at a time point of 35 min after the injection.

The subject of assay [2] is diet-induced obese mice. Description: Treatment of diet-induced obese mice. The assay is classed as in vivo, C57BL/6 mice. The following applies: 21 days. The protocol:
Six-week-old C57BL/6 mice were given high-fat diet (Research Diet D 12451; 45% fat, 20% protein, and 35% carbohydrate) for more than 12 weeks before treated with a test compound. Mice weight matched were assigned to different groups and orally gavaged once daily with a vehicle (10% DMSO/10% Tween 80/80% H2O) or a test compound at a defined dosage (e.g., 10 and 20 mg/kg) for at least two weeks. The sum of food taken for each treatment and the body weight were measured daily.

In assay [3] the test system is estrogen deficiency-induced osteoporosis mice. The experiment in a line: Treatment of estrogen deficiency-induced osteoporosis mice. The assay is classed as in vivo. The conditions noted are these: ovariectomized mice, 5 days per week for 2, 4, and 8 weeks; for trabecular bone microstructure: μCT. The protocol: Three-month-old female mice were subjected to bilateral ovariectomy or sham operation. Two weeks postoperatively, a CB1 antagonist (i.e., compounds 10, 63, and 119) or vehicle was administered 5 days per week for 2, 4, and 8 weeks. Bone mineral density and bone mineral contents in femurs, tibiae, and L1-L5 spine were measured by dual energy x-ray absorptiometry. Trabecular bone microstructure (i.e., trabecular bone volume, thickness, number, separation, porosity, and bone volume index) in femurs, tibiae and spine were analyzed by μCT scanning Mechanical strength of the bones was detected by a material test machine.

Assay [4] deals with osteoarthritic rats. Description: ACLT-induced knee osteoarthritis. The following applies: 8 weeks. The assay is classed as in vivo, Sprague-Dawley rats. The procedure:
Four-month-old male Sprague-Dawley rats were anesthetized using intramuscular atropine (1 mg/kg) and intraperitoneal pentobarbital. The left knees of rats underwent medial parapatellar arthrotomy and transection of the anterior cruciate ligament (ACLT) to induce knee osteoarthritis. The osteoarthritic rats were given a CB1 antagonist (i.e., compounds 10, 63, and 119) or vehicle for 8 weeks. Knee joint radiography was evaluated by a mammography system. Gait profiles of joints in osteoarthritic rats were analyzed by a CatWalk system. Joint morphology was histologically evaluated by a Mankin scoring system.

For assay [5], the system named is diabetic rats. Description: Streptozotocin-induced diabetic nephropathy and kidney fibrosis. The class given is in vivo, Wistar rats. The following applies: 4 weeks; for kidney fibrosis: periodic acid-Schiff staining. The procedure: Three-month-old male Wistar rats were given intraperitoneal streptozotocin (50 mg/kg) to induce diabetes. Two weeks later, diabetic rats that had fasting blood glucose levels of […] were selected for studies. Caged in a metabolic cage system, the diabetic rats were administered a CB1 antagonist (i.e., compounds 10, 63, and 119) for 4 weeks while their urine was collected. To evaluate renal function, protein and creatinine levels in urine were measured by ELISA. To evaluate renal fibrosis, kidneys were dissected, fixed, paraffin wax embedded, and sectioned for histologic assessment after periodic acid-Schiff staining.

As for `O=C(NN1CCCCC1)c1nn(-c2ccc(Cl)cc2Cl)c(-c2ccc(C#Cc3ccc(C(F)(F)F)cc3)s2)c1CNS(=O)(=O)N1CCCC1` [Compound 10, 1-(2,4-Dichlorophenyl)-N-(piperidin-1-yl)-4-((pyrrolidine-1-sulfonamido)methyl)-5-(5-((4-(trifluoromethyl)phenyl)ethynyl)thiophen-2-yl)-1H-pyrazole-3-carboxamide], in assay [1] (oral dose up to 100 mg/kg), the “reversal of CB1 agonist-induced analgesic response” value is listed as “did not reverse or slightly reversed” and the “reversal of CB1 agonist-induced hypothermia” value is given as “did not reverse or slightly reversed”. The relative weight-loss rate in assay [2] (10 mg/kg group, oral once daily) is recorded as 26.4%. This molecule also gave a relative weight-loss rate in assay [2] (20 mg/kg group, oral once daily) of 32.8%. Further, in assay [3], the bone mineral density result is “increase” and the trabecular bone microstructure result is listed as “improvement”. In assay [4], the Mankin score result is on record as “reduction”. In addition, in assay [5], the urine albumin level result is “decrease” and the kidney fibrosis entry was “reduction”.
Regarding `Cc1c(C(=O)NN2CCCCC2)nn(-c2ccc(Cl)cc2Cl)c1-c1ccc(Cl)cc1` [rimonabant, reference compound], in assay [1] (dose as low as 2 mg/kg), the “reversal of CB1 agonist-induced analgesic response” value is listed as “significantly reversed” and the “reversal of CB1 agonist-induced hypothermia” value is “significantly reversed”. This molecule displayed a relative weight-loss rate in assay [2] (rimonabant comparison, dose not given) of 29.1%.
Take `CCCC#Cc1ccc(-c2c(CNS(=O)(=O)N3CCCCC3)c(C(=O)NN3CCCCC3)nn2-c2ccc(Cl)cc2Cl)s1` [Compound 63, 1-(2,4-Dichlorophenyl)-5-(5-(pent-1-ynyl)thiophen-2-yl)-N-(piperidin-1-yl)-4-((piperidine-1-sulfonamido)methyl)-1H-pyrazole-3-carboxamide]: in assay [1] (oral dose up to 100 mg/kg), the “reversal of CB1 agonist-induced analgesic response” value is given as “did not reverse or slightly reversed” and the “reversal of CB1 agonist-induced hypothermia” value is recorded as “did not reverse or slightly reversed”. Also, in assay [3], the bone mineral density entry was “increase” and the trabecular bone microstructure entry is given as “improvement”. In assay [4], the Mankin score entry is recorded as “reduction”. Also, in assay [5], the urine albumin level result is “decrease” and the kidney fibrosis result is “reduction”.
As to `O=C(NN1CCCCC1)c1nn(-c2ccc(Cl)cc2Cl)c(-c2ccc(Cl)cc2)c1CNS(=O)(=O)N1CCCC1` [Compound 119, 5-(4-Chlorophenyl)-1-(2,4-dichlorophenyl)-N-(piperidin-1-yl)-4-((pyrrolidine-1-sulfonamido)methyl)-1H-pyrazole-3-carboxamide], in assay [1] (oral dose up to 100 mg/kg), the “reversal of CB1 agonist-induced analgesic response” value is “did not reverse or slightly reversed” and the “reversal of CB1 agonist-induced hypothermia” value is recorded as “did not reverse or slightly reversed”. Besides, in assay [3], the bone mineral density entry is “increase” and the trabecular bone microstructure entry is “improvement”. In assay [4], the Mankin score result is “reduction”. In assay [5], the urine albumin level entry is listed as “decrease” and the kidney fibrosis entry was “reduction”.
